In paper PMC11460631, “Inhibition of transient receptor potential vanilloid 3 channels by antimalarial hydroxychloroquine alleviates TRPV3-dependent dermatitis” (The Journal of Biological Chemistry, 2024):

Molecular target: T1, TRPV3 I637 alanine mutation (Homo sapiens, UniProt Q8NET8, I637A)
T1 construct: YFP or GFP; expressed in transfected cells; host or cells: HEK293T
T1 sequence (Q8NET8 1-790 I637A): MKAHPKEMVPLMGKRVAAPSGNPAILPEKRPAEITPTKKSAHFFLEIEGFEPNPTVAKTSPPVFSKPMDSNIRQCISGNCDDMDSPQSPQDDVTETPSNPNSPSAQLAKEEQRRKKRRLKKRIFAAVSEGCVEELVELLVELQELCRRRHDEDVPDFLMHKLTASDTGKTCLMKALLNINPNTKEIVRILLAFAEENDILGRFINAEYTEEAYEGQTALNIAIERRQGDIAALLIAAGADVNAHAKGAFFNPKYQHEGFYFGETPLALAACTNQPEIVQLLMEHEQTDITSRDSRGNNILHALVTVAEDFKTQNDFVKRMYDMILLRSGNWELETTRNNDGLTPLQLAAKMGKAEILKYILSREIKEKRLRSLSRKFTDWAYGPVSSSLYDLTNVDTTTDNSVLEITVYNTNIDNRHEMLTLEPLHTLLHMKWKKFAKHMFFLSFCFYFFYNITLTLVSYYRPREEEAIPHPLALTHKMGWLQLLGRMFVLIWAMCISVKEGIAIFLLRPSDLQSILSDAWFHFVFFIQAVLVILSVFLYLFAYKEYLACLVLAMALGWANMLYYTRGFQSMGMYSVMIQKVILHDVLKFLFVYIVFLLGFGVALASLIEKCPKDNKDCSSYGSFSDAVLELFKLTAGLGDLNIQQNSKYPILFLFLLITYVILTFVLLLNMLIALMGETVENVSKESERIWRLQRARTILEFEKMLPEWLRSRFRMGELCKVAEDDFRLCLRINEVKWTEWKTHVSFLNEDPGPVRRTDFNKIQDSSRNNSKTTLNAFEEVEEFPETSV
Experiment: Whole-cell recording of TRPV3 I637 alanine mutant
Format: cell-based
Conditions: 1 mM 2-APB, ± 80 mV
Source text: As we mentioned above, HCQ may act as a pore blocker of TRPV3. To probe the binding configuration of HCQ to TRPV3, we carried out molecular docking using Rosetta suite (https://rosettacommons.org) ([21]) and validated the docking models with point mutations in TRPV3 (Fig. 4A). […] Furthermore, when we introduced L670A to L591A mutant, we also observed a left shift on the concentration–response curve on this double mutant as compared to L591A mutant (Fig. 4H).
Figure 4 Residues of the pore domain are critical for HCQ inhibition on TRPV3.A, left panel, docking model of HCQ to the pore domain of TRPV3 structure (6uw4). Right panels, top view and side view of the HCQ-binding pocket. B-J, representative whole-cell recording of TRPV3 and mutants in response to 1 mM 2-APB, the mixture of 1 mM 2-APB and concentration gradients of HCQ with the holding potential of ± 80 mV. K, concentration–response curves of HCQ in WT TRPV3 and mutants (n = 3–5 cells). L, quantification of the inhibitory ratio of HCQ (100 μM) on WT, L591A, and N671Q. […]
All data from whole-cell recordings were analyzed in Igor Pro (WaveMetrics). IC50 values were determined by fitting the Hill equation to concentration-response relationships. […]

IC50: 140 ± 20 nM
Structure (SMILES): CCN(CCO)CCCC(C)Nc1ccnc2cc(Cl)ccc12 (stereo not shown) [HCQ, hydroxychloroquine]
